Reference: US12545639B2, “3-substituted phenylamidine compounds, preparation and use thereof” (PI INDUSTRIES LTD., priority 2019, dated 2026)

Assays:
[1] = system: Pyricularia oryzae; assay: microbe, parasite or virus in culture; assay type: cell-based; conditions: 168 h, read-out: control compared to the untreated check (radial growth)
[2] = system: Rhizoctonia solani; assay: Rhizoctonia solani (rice sheath blight/potato black scurf) in vitro test, radial growth on potato dextrose agar; assay type: cell-based; conditions: 168 h, 300 ppm in potato dextrose agar, 25° C., 60% relative humidity, seven days, read-out: control compared to the untreated check (radial growth)
[3] = system: Botrytis cinerea; assay: Botrytis cinerea (gray mold) in vitro test, radial growth on potato dextrose agar; assay type: cell-based; conditions: 168 h, 300 ppm in potato dextrose agar, 22° C., 90% relative humidity, seven days, read-out: control compared to the untreated check (radial growth)
[4] = system: Alternaria solani; assay: Alternaria solani (early blight of tomato/potato) in vitro test, radial growth on potato dextrose agar; assay type: cell-based; conditions: 168 h, 300 ppm in potato dextrose agar, 25° C., 60% relative humidity, seven days, read-out: control compared to the untreated check (radial growth)
[5] = system: Septoria lycopersici/Corynespora cassicola (CORYCA); assay: Septoria lycopersici/Corynespora cassicola (CORYCA) (leaf spot of tomato) in vitro test, radial growth on potato dextrose agar; assay type: cell-based; conditions: 168 h, 300 ppm in potato dextrose agar, 25° C., 70% relative humidity, seven days, read-out: control compared to the untreated check (radial growth)
[6] = system: Fusarium culmorum; assay: Fusarium culmorum (foot rot of cereals) in vitro test, radial growth on potato dextrose agar; assay type: cell-based; conditions: 168 h, 300 ppm in potato dextrose agar, 25° C., 60% relative humidity, seven days, read-out: control compared to the untreated check (radial growth)
Method: Compounds were dissolved in 0.3% dimethyl sulfoxide and then added to potato dextrose agar medium just prior to dispensing it into petri dishes. 5 mL medium with the compound in the desired concentration was dispensed into 60 mm sterile petri-plates. After solidification each plate was seeded with a 5 mm size mycelial disc taken from the periphery of an actively growing virulent culture plate. Plates were incubated in growth chambers at 25° C. temperature and 60% relative humidity for seven days and then the radial growth was measured and compared to that of the untreated control.

[7] = system: Phakopsora pachyrhizi; assay: Phakopsora pachyrhizi test in soybean, preventive, in vivo on plants; conditions: in Glycine max, read-out: Efficacy (% control), disease severity compared to the untreated check
[8] = system: Colletotrichum capsici; assay: Colletotrichum capsici (anthracnose) in vitro test, radial growth on potato dextrose agar; assay type: cell-based; conditions: Colletotrichum truncatum, 168 h; 300 ppm in potato dextrose agar; 25° C., 60% relative humidity, seven days; read-out: control compared to the untreated check (radial growth)

CCN(C)C=Nc1cc(OC)cc(Cc2cccc(Cl)c2)c1C [Compound 264, N′-(3-(3-chlorobenzyl)-5-methoxy-2-methylphenyl)-N-ethyl-N-methylformimidamide]
≥ 70%: inhibition of growth at 300 ppm [1] | inhibition of growth at 300 ppm [2] | inhibition of growth at 300 ppm [3] | inhibition of growth at 300 ppm [4] | inhibition of growth at 300 ppm [5] | inhibition of growth at 300 ppm [6] | pest or weed control at 500 ppm [7]

CCN(C)C=Nc1cc(Cl)cc(Cc2ccc(C#N)cc2)c1C [Compound 246, N′-(5-chloro-3-(4-cyanobenzyl)-2-methylphenyl)-N-ethyl-N-methylformimidamide]
≥ 70%: inhibition of growth at 300 ppm [1] | inhibition of growth at 300 ppm [2] | inhibition of growth at 300 ppm [3] | inhibition of growth at 300 ppm [4] | inhibition of growth at 300 ppm [8] | inhibition of growth at 300 ppm [6]

CCN(C)C=Nc1cc(C)cc(Nc2ccc(C)cc2)c1Cl [Compound 1, N′-(2-chloro-5-methyl-3-(p-tolylamino)phenyl)-N-ethyl-N-methylformimidamide]
≥ 70%: inhibition of growth at 300 ppm [1] | inhibition of growth at 300 ppm [2] | inhibition of growth at 300 ppm [4] | inhibition of growth at 300 ppm [8] | inhibition of growth at 300 ppm [6]

CCN(C)C=Nc1cc(OC)cc(Cc2ccc(C(F)(F)F)cc2)c1C [Compound 295, N-ethyl-N′-(5-methoxy-2-methyl-3-(4-(trifluoromethyl)benzyl)phenyl)-N-methylformimidamide]
≥ 70%: inhibition of growth at 300 ppm [1] | inhibition of growth at 300 ppm [2] | inhibition of growth at 300 ppm [3] | inhibition of growth at 300 ppm [4] | inhibition of growth at 300 ppm [5] | inhibition of growth at 300 ppm [6] | pest or weed control at 500 ppm [7]

CCN(C)C=Nc1cc(C)cc(Cc2cccc(F)c2)c1SC [Compound 190, N-ethyl-N′-(3-(3-fluorobenzyl)-5-methyl-2-(methylthio)phenyl)-N-methylformimidamide]
≥ 70%: inhibition of growth at 300 ppm [1] | inhibition of growth at 300 ppm [2] | inhibition of growth at 300 ppm [4] | inhibition of growth at 300 ppm [8] | inhibition of growth at 300 ppm [6] | pest or weed control at 500 ppm [7]

CCN(C)C=Nc1cc(OC)cc(Cc2ccc(F)cc2)c1C [Compound 261, N-ethyl-N′-(3-(4-fluorobenzyl)-5-methoxy-2-methylphenyl)-N-methylformimidamide]
≥ 70%: inhibition of growth at 300 ppm [1] | inhibition of growth at 300 ppm [2] | inhibition of growth at 300 ppm [3] | inhibition of growth at 300 ppm [4] | inhibition of growth at 300 ppm [5] | inhibition of growth at 300 ppm [6] | pest or weed control at 500 ppm [7]

CCN(C)C=Nc1cc(OC)cc(Cc2ccccc2Br)c1C [Compound 294, N′-(3-(2-bromobenzyl)-5-methoxy-2-methylphenyl)-N-ethyl-N-methylformimidamide]
≥ 70%: inhibition of growth at 300 ppm [1] | inhibition of growth at 300 ppm [2] | inhibition of growth at 300 ppm [3] | inhibition of growth at 300 ppm [4] | inhibition of growth at 300 ppm [5] | inhibition of growth at 300 ppm [6] | pest or weed control at 500 ppm [7]

CCN(C)C=Nc1cc(F)cc(Cc2ccc(C(F)(F)F)cc2)c1C [Compound 188, N-ethyl-N′-(5-fluoro-2-methyl-3-(4-(trifluoromethyl)benzyl)phenyl)-N-methylformimidamide]
≥ 70%: inhibition of growth at 300 ppm [1] | inhibition of growth at 300 ppm [2] | inhibition of growth at 300 ppm [3] | inhibition of growth at 300 ppm [4] | inhibition of growth at 300 ppm [5] | inhibition of growth at 300 ppm [6] | pest or weed control at 500 ppm [7]

CCN(C)C=Nc1cc(OC)cc(Cc2ccc(F)c(F)c2)c1C [Compound 286, N′-(3-(3,4-difluorobenzyl)-5-methoxy-2-methylphenyl)-N-ethyl-N-methylformimidamide]
≥ 70%: inhibition of growth at 300 ppm [1] | inhibition of growth at 300 ppm [2] | inhibition of growth at 300 ppm [3] | inhibition of growth at 300 ppm [4] | inhibition of growth at 300 ppm [5] | inhibition of growth at 300 ppm [6] | pest or weed control at 500 ppm [7]

CCN(C)C=Nc1cc(C)cc(Nc2ccc(SC(F)(F)F)cc2)c1Cl [Compound 26, N′-(2-chloro-5-methyl-3-((4-((trifluoromethyl)thio)phenyl)amino)phenyl)-N-ethyl-N-methylformimidamide]
≥ 70%: inhibition of growth at 300 ppm [2] | inhibition of growth at 300 ppm [3] | inhibition of growth at 300 ppm [4] | inhibition of growth at 300 ppm [8] | inhibition of growth at 300 ppm [6] | pest or weed control at 500 ppm [7]

CCN(C)C=Nc1cc(OC)cc(Cc2ccccc2C)c1C [Compound 262, N-ethyl-N′-(5-methoxy-2-methyl-3-(2-methylbenzyl)phenyl)-N-methylformimidamide]
≥ 70%: inhibition of growth at 300 ppm [1] | inhibition of growth at 300 ppm [2] | inhibition of growth at 300 ppm [3] | inhibition of growth at 300 ppm [4] | inhibition of growth at 300 ppm [5] | inhibition of growth at 300 ppm [6] | pest or weed control at 500 ppm [7]

CCN(C)C=Nc1cc(OC)cc(Cc2ccccc2Cl)c1C [Compound 265, N′-(3-(2-chlorobenzyl)-5-methoxy-2-methylphenyl)-N-ethyl-N-methylformimidamide]
≥ 70%: inhibition of growth at 300 ppm [1] | inhibition of growth at 300 ppm [2] | inhibition of growth at 300 ppm [3] | inhibition of growth at 300 ppm [4] | inhibition of growth at 300 ppm [5] | inhibition of growth at 300 ppm [6]

CCN(C)C=Nc1cc(OC)cc(Cc2ccccc2OC(F)(F)F)c1C [Compound 299, N-ethyl-N′-(5-methoxy-2-methyl-3-(2-(trifluoromethoxy)benzyl)phenyl)-N-methylformimidamide]
≥ 70%: inhibition of growth at 300 ppm [1] | inhibition of growth at 300 ppm [2] | inhibition of growth at 300 ppm [3] | inhibition of growth at 300 ppm [4] | inhibition of growth at 300 ppm [5] | inhibition of growth at 300 ppm [6] | pest or weed control at 500 ppm [7]

CCN(C)C=Nc1cc(C)cc(Cc2ccc(C#N)cc2)c1Cl [Compound 46, N′-(2-chloro-3-(4-cyanobenzyl)-5-methylphenyl)-N-ethyl-N-methylformimidamide]
≥ 70%: inhibition of growth at 300 ppm [1] | inhibition of growth at 300 ppm [2] | inhibition of growth at 300 ppm [3] | inhibition of growth at 300 ppm [4] | inhibition of growth at 300 ppm [8] | inhibition of growth at 300 ppm [6]
